According to the supplement of paper PMC10307832:

Assays:
Test in all cases: relative viability (nuclei count vs DMSO), 5 days (fraction); higher = more cells survive
EKVX = system: EKVX
In short: (§1)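 Relative viability is defined as nuclei in treated wells over nuclei in vehicle wells. Duplicate plates were run and medians reported. Lung cancer cell lines in 1536-well plates were dosed by pin tool one day after seeding, with one drug or with a fixed anchor-drug dose plus five library-drug doses (not always all listed) in √10 steps, and nuclei were counted after 5 days.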

NCI-H1648 = system: NCI-H1648
In short: as §1

RERF-LC-KJ = system: RERF-LC-KJ
In short: as §1

NCI-H1993 = system: NCI-H1993
In short: as §1

NCI-H2085 = system: NCI-H2085
In short: as §1

NCI-H2126 = system: NCI-H2126
In short: as §1

HCC-44 = system: HCC-44
In short: as §1

ABC-1 = system: ABC-1
In short: as §1

SMILES	relative viability (EKVX; first compound 0.005 µM)	relative viability (EKVX; first compound 0.01581 µM)	relative viability (EKVX; first compound 0.05 µM)	relative viability (EKVX; first compound 0.5 µM)	relative viability (NCI-H1648; first compound 0.005 µM)	relative viability (NCI-H1648; first compound 0.01581 µM)	relative viability (NCI-H1648; first compound 0.05 µM)	relative viability (NCI-H1648; first compound 0.1581 µM)	relative viability (NCI-H1648; first compound 0.5 µM)	relative viability (RERF-LC-KJ; first compound 0.005 µM)	relative viability (RERF-LC-KJ; first compound 0.01581 µM)	relative viability (RERF-LC-KJ; first compound 0.05 µM)	relative viability (RERF-LC-KJ; first compound 0.1581 µM)	relative viability (RERF-LC-KJ; first compound 0.5 µM)	relative viability (NCI-H1993; first compound 0.005 µM)	relative viability (NCI-H1993; first compound 0.01581 µM)	relative viability (NCI-H1993; first compound 0.05 µM)	relative viability (NCI-H1993; first compound 0.1581 µM)	relative viability (NCI-H1993; first compound 0.5 µM)	relative viability (NCI-H2085; first compound 0.005 µM)	relative viability (NCI-H2085; first compound 0.01581 µM)	relative viability (NCI-H2085; first compound 0.05 µM)	relative viability (NCI-H2085; first compound 0.1581 µM)	relative viability (NCI-H2085; first compound 0.5 µM)	relative viability (NCI-H2126; first compound 0.005 µM)	relative viability (NCI-H2126; first compound 0.01581 µM)	relative viability (NCI-H2126; first compound 0.05 µM)	relative viability (NCI-H2126; first compound 0.1581 µM)	relative viability (NCI-H2126; first compound 0.5 µM)	relative viability (HCC-44; first compound 0.005 µM)	relative viability (HCC-44; first compound 0.01581 µM)	relative viability (HCC-44; first compound 0.05 µM)	relative viability (HCC-44; first compound 0.1581 µM)	relative viability (HCC-44; first compound 0.5 µM)	relative viability (ABC-1; first compound 0.005 µM)	relative viability (ABC-1; first compound 0.01581 µM)	relative viability (ABC-1; first compound 0.05 µM)	relative viability (ABC-1; first compound 0.1581 µM)	relative viability (ABC-1; first compound 0.5 µM)
Nc1ccn([C@@H]2O[C@H](CO)[C@@H](O)[C@@H]2O)c(=O)n1 [Cytarabine] + CC(=O)Nc1cccc(-n2c(=O)n(C3CC3)c(=O)c3c(Nc4ccc(I)cc4F)n(C)c(=O)c(C)c32)c1 [Trametinib] (partner 0.02 µM)	0.584	0.285	0.295	0.167	0.419	0.4	0.44	0.36	0.373	0.797	0.862	0.716	0.498	0.402	0.425	0.518	0.498	0.437	0.432	0.504	0.552	0.5	0.26	0.39	0.575	0.505	0.448	0.349	0.357	1.08	1.03	1.08	1.04	1.01					
Nc1ccn([C@@H]2O[C@H](CO)[C@@H](O)[C@@H]2O)c(=O)n1 [Cytarabine] + CC(=O)c1c(C)c2cnc(Nc3ccc(N4CCNCC4)cn3)nc2n(C2CCCC2)c1=O [Palbociclib] (partner 0.5 µM)	0.366	0.403	0.296	0.207	0.29	0.283	0.263	0.308	0.273	0.858	0.882	0.819	0.517	0.41	0.714	0.489	0.518	0.507	0.323	0.445	0.425	0.393	0.294	0.266	0.352	0.312	0.298	0.277	0.261	0.997	0.942	0.911	0.806	0.812	0.49	0.736	0.625	0.468	0.432
Nc1ccn([C@@H]2O[C@H](CO)[C@@H](O)[C@@H]2O)c(=O)n1 [Cytarabine] + Nc1nc2[nH]cc(CCc3ccc(C(=O)N[C@@H](CCC(=O)O)C(=O)O)cc3)c2c(=O)[nH]1 [Pemetrexed] (partner 0.2 µM)	0.473	0.364	0.361	0.362	0.563	0.733	0.838	0.653	0.515	0.453	0.502	0.381	0.34	0.249	0.682	0.548	0.299	0.448	0.471	0.788	0.921	0.906	0.703	0.547	0.76	0.775	0.525	0.549	0.46	0.717	0.629	0.67	0.751	0.774					
